# Data: a melting point compilation (Tetko et al.; mined from patent text by program, amines drawn as free bases though some values may be those of a salt)
row,melting point [°C],SMILES
1,157 to 158,COc1ccc(-c2nc(SC)[nH]c2-c2ccc(OC)cc2)cc1
2,140 to 143,O=C(NCC(O)c1ccccc1)c1ccccc1 (stereo unspecified)
3,118 to 122,CCC(C)OC(=O)N1CCC(c2nc3cc(-c4ccc(-n5cnnn5)cc4F)ccc3o2)CC1 (stereo unspecified)
4,49 to 51,Cc1ccc(S(=O)(=O)Cc2ccccc2)cc1
5,131 to 141,CN1CCN(C(c2ccc(Cl)cc2)c2cccc(C=CC(=O)O)c2)CC1 (stereo unspecified)
6,59 to 60,COC(=O)[C@H](C)OC(=O)c1cc(-n2c(=O)cc(C(F)(F)F)n(C)c2=O)ccc1Cl
7,188 to 190,COc1ccc(S(=O)(=O)Nc2cccc(Cl)c2/C=C/c2ccncc2)cc1
8,140 to 141,COC(=O)[C@@H]1NC(=O)[C@@H]1NC(=O)COc1ccccc1 (relative stereo)
9,196,CC(=O)NC(c1ccc(F)cc1)(c1cc2c3c(c1)c(-c1cccc(Cl)c1)cc(=O)n3CC2)c1nncn1C (stereo unspecified)
10,177 to 178,O=C(CSc1n[nH]c(-c2ccco2)n1)C12CC3CC(CC(C3)C1)C2
11,231 to 234,CCc1ccc(C=CC(=O)NN2CC(=O)NC2=O)cc1Cl
12,207 to 209,C=CCc1c(O)ccc2ccc(=O)[nH]c12
13,138,CN(C)c1ccc2c(c1)CN1C(=Nc3cccnc3)SC[C@@H]1C2
14,188 to 189,CC(C)(C)n1cc(-c2ccc(I)cc2)c2c(N)ncnc21
15,45,OCc1ccc(-c2cccc(C(F)(F)F)c2)o1
16,91 to 92,C=CCN1C(=O)NC(=C(C(=O)OCC)C(=O)OCC)C1=O
17,161 to 163,CCCN1CC(c2ccc(S(C)(=O)=O)cc2)=C(c2ccc(C)cc2)C1=O
18,271 to 273,Cc1c(C(=O)O)ccc(=O)n1-c1ccc(Cl)cc1
19,65 to 67,CCCCOc1ccc(S(=O)(=O)N2CC(N(Cc3ccccc3)CC(O)COc3cccc4[nH]c5ccccc5c34)C2)cc1 (stereo unspecified)
20,159 to 160,Nc1cnc(-c2cc(Cl)ccc2Cl)c(N)n1
21,82 to 85,CCOC(=O)C(=O)c1csc(NC(c2ccccc2)c2ccccc2)n1
22,224 to 227,CCCNC(=O)C(C)=Cc1ccc2ccn(Cc3ccc(C(=O)NS(=O)(=O)c4ccccc4C)cc3OC)c2c1
23,194 to 197,COc1cc(N2CCN(C3CCN(c4cccc5cccnc45)CC3)CC2)c2ncccc2c1
24,219 to 220,CC(O)c1cc2c(n1C)C(=O)c1cccc(O)c1C2=O (stereo unspecified)
25,222 to 223,NC(=O)c1cc2c(OCCCN3CCN(C(c4ccccc4)c4ccccc4)CC3)cccc2[nH]1
26,28,CCOC(=O)CCNC(=O)CCCCNC(=O)OC(C)(C)C

row,melting point [°C],SMILES
1,172 to 173,CC(C)Oc1cc(Oc2ccc(S(C)(=O)=O)cn2)cc2cc(C3=NCC(CCO)S3)[nH]c12 (stereo unspecified)
2,113 to 114,COCc1nnc(NC(=O)C2c3ccccc3Oc3ccccc32)o1
3,256 to 257,CCOC(=O)c1cc2n(CC)c3ccc(Cl)cc3c(=O)n2n1
4,74,CC(C)(OCc1cc2cc(Cl)ccc2n1S(=O)(=O)c1ccc2ncsc2c1)C(=O)O
5,112 to 114,CCn1cc2c3c(cccc31)CN(C(=O)OCc1ccccc1)C2
6,62 to 65,CCCCN(C1CCCOc2ccccc21)S(=O)(=O)CC (stereo unspecified)
7,141 to 142,COC(=O)c1c(Br)c(Cl)cc2nn(C)cc12
8,235 to 236,COc1ccc(S(C)(=O)=O)cc1-c1nc2ccc(C(C)(C)CNC=O)cc2[nH]1
9,110 to 112,O=C(O)c1nn(-c2ccc(Cl)cc2)c2c1[C@H]1CC[C@@H]2C1
10,110 to 115,O=C1C(=O)c2ccccc2C2=C1SCC1(CCN(C(=O)C=Cc3ccccc3Cl)CC1)O2
11,185,O=C(O)c1cnn2c1NC(c1ccccc1)CC2C(F)(F)F (stereo unspecified)
12,78 to 79,COCC(=O)N[C@H]1c2ccccc2C[C@@H]1C
13,80,COC(=O)CCc1cc2c(c(C(C)(C)C)c1)OC(=O)C2c1cc(C)ccc1C (stereo unspecified)
14,65 to 67,O=C(CCC1CCN(Cc2ccccc2)CC1)c1ccc(F)cc1
15,167 to 168,COc1ccc(Cn2cnc3c(-c4ccco4)nc(N(C(C)=O)C(C)=O)nc32)cc1
16,173 to 174,CCCCCc1cc2c(cc1/C=C/c1ccc(C(=O)O)cc1)C(C)(C)CCC2(C)C
17,97 to 98,O=[N+]([O-])c1cccc(Cn2ccnc2)c1
18,203 to 205,CCOC(=O)c1[nH]c2cc(Cl)cc(Cl)c2c1NCCCC(=O)c1ccccc1
19,147,Cc1nc(CS(C)(=O)=O)nc(OC(=O)NN2CCOCC2)c1C
20,147 to 149,COc1cccc([C@H]2O[C@H](CC(=O)Nc3ccc(OCCCc4ccccc4)c(CCC(=O)O)c3)C(=O)N(CC(C)(C)CO)c3ccc(Cl)cc32)c1OC
21,205 to 206,O=C(O)c1ccnc(-c2cccc3cc(Cc4cc(F)cc(Cl)c4)sc23)c1
22,107 to 108,N#Cc1c(Cl)c(C(F)(F)F)n(CCl)c1-c1ccc(Cl)cc1
23,80,CC(C)c1ccc(N(Cc2ccc(F)cc2)C(=O)Nc2c(C(C)C)cccc2C(C)C)cc1
24,75 to 90,CCOC(=O)C1=C(CCC(OC(=O)c2ccc([N+](=O)[O-])cc2)c2ccccc2)NC(C)=C(C(=O)OC)C1c1cccc([N+](=O)[O-])c1 (stereo unspecified)
25,67 to 68,COC(=O)C1CCC2C(CCC3C(C)(C)CCCC23C)C(=O)C1 (stereo unspecified)
26,147 to 148,CSc1ccc(COc2cccc(C(=O)Nc3ccc(C#N)cc3)c2)cc1

row,melting point [°C],SMILES
1,90.5 to 91.5,CC(C)(C)OC(=O)N1CCN(C(=O)OCc2ccccc2)CC1
2,112 to 114,O=C1Cn2cncc2CN1Cc1ccc(F)cc1
3,262 to 266,O=C(c1cc(-c2ccccc2)c(=O)n2c1-c1ccccc1C2)N1CCOCC1
4,195 to 196,O=C(Nc1ccc(Oc2ccnc(N3CCC4(CC3)OCCO4)n2)c2ccccc12)c1cc(F)cc(N2CCCCC2)c1
5,156 to 158,O=C1NCCN1Cc1c(Cl)cccc1Cl
6,184 to 186,CC(=O)N1c2ccccc2CC1c1ccccc1NC(=O)C(C)(C)C (stereo unspecified)
7,51.5 to 52.5,N#CC(Cl)CC(Cl)(Cl)C(=O)Oc1ccccc1 (stereo unspecified)
8,189 to 191,O=C(O)C(=O)CC(=O)c1cccn1Cc1ccc(-c2ccccc2)cc1
9,94 to 95,Cc1nc2c(OCc3ccccc3)cc(Br)cc2n1COCC[Si](C)(C)C
10,55 to 58,CCCCOC(=O)CNC(=O)c1ncccc1OCc1ccccc1
11,119 to 120,CC(=O)C1CCCS1(=O)=O (stereo unspecified)
12,208 to 209,O=S1(=O)Oc2ccccc2Nc2ncccc21
13,115 to 117,O=c1cc(NCCN2CCN(c3cc(Cl)cc4c3OCCO4)CC2)cn[nH]1
14,105 to 125,Cc1cccc(Br)c1C(=O)c1sc(Nc2ccc(N3CCOCC3)cc2)nc1N
15,109 to 110,O=C(c1ccc(F)cc1)N(CCCCn1ccnc1)C1=Nc2cccc3cccc1c23
16,149 to 151,O=C(O)c1ccccc1C(=O)NNC(=S)Nc1ccccc1
17,113 to 115,CCCc1c(OCCCOc2cccc3c2CCCC3)ccc2c1OC(CCC(O)CO)(CCC(O)CO)CC2=O (stereo unspecified)
18,105 to 107,COc1c(Cl)nc(Cl)nc1-c1ccco1
19,178 to 180,Cc1ccc(-c2ccc3c(c2)C=C(C(=O)Nc2ccc(CN4CCSCC4)cc2)CC3)cc1
20,241 to 242,CC(C)(C)c1cc(SCc2nc3cccnc3[nH]2)cc(C(C)(C)C)c1O
21,207 to 210,CN(C)C=Nc1nc(=O)n(S(=O)(=O)c2ccc(Cl)cc2)cc1F
22,196,OC1CSC(Oc2ccccn2)C(O)C1O (stereo unspecified)
23,115,COc1cc(NP(=O)(OC)OC)ccc1NC(=O)OCc1ccccc1
24,218 to 220,CC(=O)Nc1ccnc(-c2ccncc2)n1
25,139 to 140,CCc1noc(-c2cn(-c3cc(Cl)ccc3OC)cn2)n1
26,101 to 102,CN1C(=O)c2cscc2N(C)c2ccccc21

row,melting point [°C],SMILES
1,79 to 81,Cn1c(=O)cc(CCN2CCC(c3c[nH]c4ccccc34)CC2)c2ccccc21
2,201 to 209,Cc1c[nH]c2c1C(=O)CC(c1ccccc1Cl)C2 (stereo unspecified)
3,147 to 150,CNS(=O)(=O)c1cc(C2(O)CCC(=O)N2C)ccc1Cl (stereo unspecified)
4,166,C(=Nc1onc2c1CCC2)c1ccccc1
5,98 to 110,CNC1=NS(=O)(=O)N=C1NCCSCc1nc[nH]c1C
6,128 to 130,CCC(COC)Nc1nc(C)nc(Cl)c1N (stereo unspecified)
7,182,CN(Cc1cc(C(F)(F)F)cc(C(F)(F)F)c1)C(=O)c1nc(N)ncc1-c1ccccc1
8,156 to 158,Cc1sc2cc3ccccc3c(-c3ccc(O)c(C4CCCC4)c3)c2c1C
9,205 to 208,CNC(=O)C1(N2C(=O)c3cccc(NC(C)=O)c3C2=O)CCCCC1
10,141 to 143,Nc1ncccc1C(=O)NCC1CCN(CC2COc3ccc(F)cc3O2)CC1 (stereo unspecified)
11,47 to 49,CC(C)(C)c1ccc2c(c1)CCC(CN1CCCCC1)C2=O (stereo unspecified)
12,49 to 51,CC(C)C(=O)n1ccc(-c2ccc(Oc3ccccc3)cc2)n1
13,126 to 127,Cn1c(=O)n(CCO)n(CCO)c1=O
14,167 to 169,O=c1c2ccccc2cc(Br)c2ccncc12
15,265 to 266,COc1ccc(NC(=O)/C=C/c2c(F)c(F)c(F)c(F)c2F)cc1[N+](=O)[O-]
16,194 to 196,N=C(N)NNC(=O)c1cccc(-c2csc(N=C(N)N)n2)n1
17,95 to 96,c1ccc2nc(COc3cccc4cccnc34)ccc2c1
18,114 to 116,CC(C)(C)OC(=O)N1CCC(C#N)(CCl)CC1
19,122 to 123,[O-][N+]1=C(c2ccccc2)c2cc(Cl)ccc2C=CC1
20,143 to 144,CC(=O)Oc1cc(OC(C)=O)c2c(c1)OC(c1ccc(OC(C)=O)c(OC(C)=O)c1)CC2 (stereo unspecified)
21,55,O=c1cccccc1S
22,177 to 179,O=C1Nc2cc(Cl)ccc2Cn2cccc21
23,248 to 251,Cc1nc2c3c(ccn2c1C)C(=O)[C@](O)(Cc1ccccc1)[C@@H](c1ccccc1)N3
